Measurements published in ChEMBL document CHEMBL4184141, “Investigating the Antibacterial Activity of Biphenylthiazoles against Methicillin- and Vancomycin-Resistant Staphylococcus aureus (MRSA and VRSA)” (J Med Chem, 2017).
In brackets after ≈: the same amount, converted by molar mass. Activity calls are given as the source filed them. The rule behind the calls is not given here.

Assays:
Staphylococcus aureus [1] = experiment: Antibacterial activity against methicillin-resistant Staphylococcus aureus 2658 RCMB up to 20 hrs by broth microdilution assay; assay type: functional
[2] = Aqueous solubility of the compound in PBS after 2 hrs by turbidimetric method; assay type: physicochemical
[3] = Efflux ratio of permeability from basolateral to apical side over apical to basolateral side of human Caco2 cells by LC-MS/MS analysis; assay type: ADME, cell-based; conditions: Caco-2
[4] = Intrinsic clearance in human liver microsomes in absence of NADPH by LC-MS/MS analysis; assay type: ADME, microsome; conditions: read-out: CLH
[5] = Apparent permeability of the compound across basolateral side to apical side in human Caco2 cells by LC-MS/MS analysis; assay type: ADME, cell-based; conditions: Caco-2
[6] = Half life in human liver microsomes in absence of NADPH by LC-MS/MS analysis; assay type: ADME, microsome
Staphylococcus aureus [7] = experiment: Bactericidal activity against methicillin-resistant Staphylococcus aureus USA300 assessed as time required for 3 log10CFU reduction in bacterial load at 4 times MIC by time kill assay; assay type: functional
Staphylococcus aureus [8] = experiment: Antibacterial activity against vancomycin-resistant Staphylococcus aureus VRS12 up to 20 hrs by broth microdilution assay; assay type: functional; conditions: VRS12, 20 h
Staphylococcus aureus [9] = experiment: Antibacterial activity against Staphylococcus aureus RN4220 up to 20 hrs by broth microdilution assay; assay type: functional; conditions: RN4220, 20 h
Staphylococcus aureus [10] = experiment: Antibacterial activity against methicillin-resistant Staphylococcus aureus USA400 NRS123 up to 20 hrs by broth microdilution assay; assay type: functional; conditions: USA400 NRS123, 20 h
Staphylococcus aureus [11] = experiment: Antibacterial activity against methicillin-resistant Staphylococcus aureus USA300 at 4 times MIC after 12 hrs by time-kill assay; assay type: functional, organism-based
Staphylococcus aureus [12] = experiment: Bactericidal activity against Staphylococcus aureus RN4220 up to 18 hrs by broth microdilution assay; assay type: functional; conditions: RN4220, 18 h, read-out: MBC99.9
Staphylococcus aureus [13] = experiment: Antibacterial activity against vancomycin-resistant Staphylococcus aureus VRS11a up to 20 hrs by broth microdilution assay; assay type: functional
Staphylococcus aureus [14] = experiment: Antibacterial activity against methicillin-resistant Staphylococcus aureus NRS119 up to 20 hrs by broth microdilution assay; assay type: functional; conditions: NRS119, 20 h
Enterococcus faecium = experiment: Antibacterial activity against vancomycin-resistant Enterococcus faecium ATCC 700221 up to 20 hrs by broth microdilution assay; assay type: functional; conditions: ATCC 700221, 20 h
Staphylococcus aureus [15] = experiment: Bactericidal activity against vancomycin-resistant Staphylococcus aureus VRS12 up to 18 hrs by broth microdilution assay; assay type: functional; conditions: VRS12, 18 h, read-out: MBC99.9
Staphylococcus aureus [16] = experiment: Bactericidal activity against vancomycin-resistant Staphylococcus aureus VRS10 up to 18 hrs by broth microdilution assay; assay type: functional; conditions: VRS10, 18 h, read-out: MBC99.9
Staphylococcus aureus [17] = experiment: Antibacterial activity against vancomycin-resistant Staphylococcus aureus VRS10 up to 20 hrs by broth microdilution assay; assay type: functional; conditions: VRS10, 20 h
HRT-18 cell line [18] = experiment: Cytotoxicity against human HRT18 cells up to 32 microg/ml after 6 hrs by MTS assay; assay type: cell-based; conditions: hrt-18, 6 h
Staphylococcus aureus [19] = experiment: Bactericidal activity against vancomycin-resistant Staphylococcus aureus VRS11a up to 18 hrs by broth microdilution assay; assay type: functional; conditions: read-out: MBC99.9
Pseudomonas aeruginosa = experiment: Antibacterial activity against Pseudomonas aeruginosa ATCC 15442 up to 20 hrs by broth microdilution assay; assay type: functional; conditions: ATCC 15442, 20 h
HRT-18 cell line [20] = experiment: Cytotoxicity against human HRT18 cells at 64 microg/ml after 6 hrs by MTS assay; assay type: cell-based; conditions: hrt-18, 6 h
Staphylococcus aureus [21] = experiment: Bactericidal activity against methicillin-resistant Staphylococcus aureus USA400 NRS123 up to 18 hrs by broth microdilution assay; assay type: functional; conditions: USA400 NRS123, 18 h, read-out: MBC99.9
Staphylococcus aureus [22] = experiment: Bactericidal activity against methicillin-resistant Staphylococcus aureus NRS119 up to 18 hrs by broth microdilution assay; assay type: functional; conditions: NRS119, 18 h, read-out: MBC99.9
Staphylococcus aureus [23] = experiment: Bactericidal activity against methicillin-resistant Staphylococcus aureus USA300 assessed as time required to reduce bacterial load to 0 at 4 times MIC by time-kill assay; assay type: functional

## Cc1nc(-c2ccc(-c3ccccc3)cc2)sc1-c1ccnc(N=C(N(C)C)N(C)C)n1
Staphylococcus aureus [1]
  MIC: > 25 µg/mL

## Cc1nc(-c2ccc(-c3ccccc3)cc2)sc1-c1ccnc(NC#N)n1
Staphylococcus aureus [1]
  MIC: > 25 µg/mL

## CCN(CC)c1nccc(-c2sc(-c3ccc(-c4ccccc4)cc3)nc2C)n1
Staphylococcus aureus [1]
  MIC: > 25 µg/mL

## Cc1nc(-c2ccc(-c3ccccc3)cc2)sc1-c1ccnc(N2CCC2)n1
Staphylococcus aureus [1]
  MIC: > 25 µg/mL

## CCNc1nccc(-c2sc(-c3ccc(-c4ccccc4)cc3)nc2C)n1
Staphylococcus aureus [1]
  MIC: 6.25 µg/mL (≈ 16.8 µM)

## Cc1nc(-c2ccc(-c3ccccc3)cc2)sc1-c1ccnc(NC2CCCCC2)n1
Staphylococcus aureus [1]
  MIC: > 25 µg/mL

## Cc1nc(-c2ccc(-c3ccccc3)cc2)sc1-c1ccnc(NC(C)C)n1
Staphylococcus aureus [1]
  MIC: > 25 µg/mL

## Cc1nc(-c2ccc(-c3ccccc3)cc2)sc1-c1ccnc(NC(=N)N)n1
[2]
  solubility kinetic at 2 h: 2.2 µM (≈ 0.85 µg/mL)
Staphylococcus aureus [1]
  MIC: 1.56 µg/mL (≈ 4.04 µM)

## Cc1nc(-c2ccc(-c3ccccc3)cc2)sc1-c1ccnc(N(C)C)n1
Staphylococcus aureus [1]
  MIC: > 25 µg/mL

## Cc1nc(-c2ccc(-c3ccccc3)cc2)sc1-c1ccnc(N2CCCC2)n1
Staphylococcus aureus [1]
  MIC: > 25 µg/mL

## Cc1nc(-c2ccc(-c3ccccc3)cc2)sc1-c1ccncn1
Staphylococcus aureus [1]
  MIC: > 25 µg/mL

## Cc1nc(-c2ccc(-c3ccccc3)cc2)sc1-c1ccnc(NC(=N)c2cccnc2)n1
Staphylococcus aureus [1]
  MIC: > 25 µg/mL

## CCCCc1ccc(-c2nc(C)c(/C(C)=N/NC(=N)N)s2)cc1
Staphylococcus aureus [1]
  MIC: 4.7 to 4.8 µg/mL (≈ 14.3 to 14.6 µM)
[3]
  efflux ratio: > 2
[4]
  microsomal CLint: < 9.6 µL/min/mg
[5]
  Papp B→A: 1.2 ×10⁻⁶ cm/s
[6]
  half-life: > 4 h

## CCCCNc1nccc(-c2sc(-c3ccc(-c4ccccc4)cc3)nc2C)n1
Staphylococcus aureus [1]
  MIC: > 25 µg/mL

## Cc1nc(-c2ccc(-c3ccccc3)cc2)sc1-c1ccnc(-c2ccncc2)n1
Staphylococcus aureus [1]
  MIC: > 25 µg/mL

## Cc1nc(-c2ccc(-c3ccccc3)cc2)sc1-c1ccnc(NC(=N)n2cccn2)n1
Staphylococcus aureus [1]
  MIC: > 25 µg/mL

## C/C(=N\NC(=N)N)c1sc(-c2ccc(-c3ccccc3)cc2)nc1C
[2]
  solubility kinetic at 2 h: 2.7 µM (≈ 0.944 µg/mL)
Staphylococcus aureus [7]
  Time: 10 h
Staphylococcus aureus [1]
  MIC: 1.6 to 2.4 µg/mL (≈ 4.58 to 6.87 µM)
[3]
  efflux ratio: > 2
[5]
  Papp B→A: 1.2 ×10⁻⁶ cm/s

## CNc1nccc(-c2sc(-c3ccc(-c4ccccc4)cc3)nc2C)n1
Staphylococcus aureus [1]
  MIC: 12.5 µg/mL (≈ 34.9 µM)

## Cc1nc(-c2ccc(-c3ccccc3)cc2)sc1-c1ccnc(-c2cccnc2)n1
Staphylococcus aureus [1]
  MIC: > 25 µg/mL

## Cc1nc(-c2ccc(-c3ccccc3)cc2)sc1-c1ccnc(NC(=N)c2ccccn2)n1
Staphylococcus aureus [1]
  MIC: > 25 µg/mL

## CCCNc1nccc(-c2sc(-c3ccc(-c4ccccc4)cc3)nc2C)n1
Staphylococcus aureus [1]
  MIC: > 25 µg/mL

## Cc1nc(-c2ccc(-c3ccccc3)cc2)sc1-c1ccnc(NC(=N)N2CCCCC2)n1
Staphylococcus aureus [1]
  MIC: > 25 µg/mL

## Cc1nc(-c2ccc(-c3ccccc3)cc2)sc1-c1ccnc(N2CCCCC2)n1
Staphylococcus aureus [1]
  MIC: > 25 µg/mL

## Cc1nc(-c2ccc(-c3ccccc3)cc2)sc1-c1ccnc(NC2CCCC2)n1
Staphylococcus aureus [1]
  MIC: > 25 µg/mL

## Cc1nc(-c2ccc(-c3ccccc3)cc2)sc1-c1ccnc(NC(=N)N2CCOCC2)n1
Staphylococcus aureus [8]
  MIC: 64 µg/mL (≈ 140 µM)
Staphylococcus aureus [9]
  MIC: 8 µg/mL (≈ 17.5 µM)
Staphylococcus aureus [10]
  MIC: 16 µg/mL (≈ 35 µM)
Staphylococcus aureus [1]
  MIC: 0.78 µg/mL (≈ 1.71 µM)
Staphylococcus aureus [11]
  Activity: inactive
Staphylococcus aureus [12]
  MBC: 32 µg/mL (≈ 70.1 µM)
Staphylococcus aureus [13]
  MIC: 32 µg/mL (≈ 70.1 µM)
Staphylococcus aureus [14]
  MIC: 8 µg/mL (≈ 17.5 µM)
Enterococcus faecium
  MIC: 8 µg/mL (≈ 17.5 µM)
Staphylococcus aureus [15]
  MBC: 64 µg/mL (≈ 140 µM)
Staphylococcus aureus [16]
  MBC: 64 µg/mL (≈ 140 µM)
Staphylococcus aureus [17]
  MIC: 32 µg/mL (≈ 70.1 µM)
HRT-18 cell line [18]
  Activity: Non-Toxic
Staphylococcus aureus [19]
  MBC: 64 µg/mL (≈ 140 µM)
Pseudomonas aeruginosa
  MIC: > 64 µg/mL
HRT-18 cell line [20]
  Activity: Toxic
Staphylococcus aureus [21]
  MBC: 16 µg/mL (≈ 35 µM)
Staphylococcus aureus [22]
  MBC: 16 µg/mL (≈ 35 µM)

## Cc1nc(-c2ccc(-c3ccccc3)cc2)sc1-c1ccnc(NC(=N)c2ccncc2)n1
Staphylococcus aureus [1]
  MIC: > 25 µg/mL

## Cc1nc(-c2ccc(-c3ccccc3)cc2)sc1-c1ccnc(NN2CCOCC2)n1
Staphylococcus aureus [1]
  MIC: 3.12 µg/mL (≈ 7.26 µM)

## CN[C@H](CC(C)C)C(=O)N[C@H]1C(=O)N[C@@H](CC(N)=O)C(=O)N[C@H]2C(=O)N[C@H]3C(=O)N[C@H](C(=O)N[C@H](C(=O)O)c4cc(O)cc(O)c4-c4cc3ccc4O)[C@H](O)c3ccc(c(Cl)c3)Oc3cc2cc(c3O[C@@H]2O[C@H](CO)[C@@H](O)[C@H](O)[C@H]2O[C@H]2C[C@](C)(N)[C@H](O)[C@H](C)O2)Oc2ccc(cc2Cl)[C@H]1O [VANCOMYCIN]
Staphylococcus aureus [8]
  MIC: 16 µg/mL (≈ 11 µM)
Staphylococcus aureus [1]
  MIC: 1.56 µg/mL (≈ 1.08 µM)
Staphylococcus aureus [12]
  MBC: 1 µg/mL (≈ 0.69 µM)
Staphylococcus aureus [13]
  MIC: > 512 µg/mL
Enterococcus faecium
  MIC: > 64 µg/mL
Staphylococcus aureus [15]
  MBC: 256 µg/mL (≈ 177 µM)
Staphylococcus aureus [23]
  Time: 24 h
Staphylococcus aureus [16]
  MBC: 512 µg/mL (≈ 353 µM)
Staphylococcus aureus [17]
  MIC: 128 to 512 µg/mL (≈ 88.3 to 353 µM)
Staphylococcus aureus [19]
  MBC: > 512 µg/mL
Staphylococcus aureus [21]
  MBC: 1 µg/mL (≈ 0.69 µM)
Staphylococcus aureus [22]
  MBC: 1 µg/mL (≈ 0.69 µM)

## CNC(=N)Nc1nccc(-c2sc(-c3ccc(-c4ccccc4)cc3)nc2C)n1
Staphylococcus aureus [8]
  MIC: 64 µg/mL (≈ 160 µM)
Staphylococcus aureus [9]
  MIC: 8 µg/mL (≈ 20 µM)
Staphylococcus aureus [10]
  MIC: 16 µg/mL (≈ 39.9 µM)
Staphylococcus aureus [1]
  MIC: 1.56 µg/mL (≈ 3.9 µM)
Staphylococcus aureus [12]
  MBC: 32 µg/mL (≈ 79.9 µM)
Staphylococcus aureus [13]
  MIC: 32 µg/mL (≈ 79.9 µM)
Staphylococcus aureus [14]
  MIC: 8 µg/mL (≈ 20 µM)
Staphylococcus aureus [15]
  MBC: 64 µg/mL (≈ 160 µM)
Staphylococcus aureus [16]
  MBC: 64 µg/mL (≈ 160 µM)
Staphylococcus aureus [17]
  MIC: 32 µg/mL (≈ 79.9 µM)
Staphylococcus aureus [19]
  MBC: 64 µg/mL (≈ 160 µM)
Staphylococcus aureus [21]
  MBC: 16 µg/mL (≈ 39.9 µM)
Staphylococcus aureus [22]
  MBC: 16 µg/mL (≈ 39.9 µM)

## Cc1nc(-c2ccc(-c3ccccc3)cc2)sc1-c1ccnc(N)n1
Staphylococcus aureus [1]
  MIC: 6.25 µg/mL (≈ 18.1 µM)

## Cc1nc(-c2ccc(-c3ccccc3)cc2)sc1-c1ccnc(NN)n1
Staphylococcus aureus [1]
  MIC: 1.56 µg/mL (≈ 4.34 µM)

## Cc1nc(-c2ccc(-c3ccccc3)cc2)sc1-c1ccnc(NC(N)=S)n1
Staphylococcus aureus [1]
  MIC: > 25 µg/mL

## Cc1nc(-c2ccc(-c3ccccc3)cc2)sc1-c1ccnc(N2CCOCC2)n1
Staphylococcus aureus [1]
  MIC: 3.12 µg/mL (≈ 7.53 µM)

## Cc1nc(-c2ccc(-c3ccccc3)cc2)sc1-c1ccnc(NC(=N)N2CCCC2)n1
Staphylococcus aureus [1]
  MIC: 12.5 µg/mL (≈ 28.4 µM)

## CCCCc1ccc(-c2nc(C)c(-c3ccnc(N)n3)s2)cc1
Staphylococcus aureus [1]
  MIC: 3.6 µg/mL (≈ 11.1 µM)

## Cc1nc(-c2ccc(-c3ccccc3)cc2)sc1-c1ccnc(N2CC(O)C2)n1
Staphylococcus aureus [1]
  MIC: 3.12 µg/mL (≈ 7.79 µM)

## Cc1nc(-c2ccc(-c3ccccc3)cc2)sc1-c1ccnc(-c2ccccn2)n1
Staphylococcus aureus [1]
  MIC: > 25 µg/mL
